Fold change (FC), IC50 and inhibition data for 2 molecules are collected here from ChEMBL document CHEMBL4052690, “2-Chlorophenyl-substituted benzofuro[3,2-b]pyridines with enhanced topoisomerase inhibitory activity: The role of the chlorine substituent” (Bioorg Med Chem Lett, 2017).

For test [1], the target named is T1, DNA topoisomerase 1 (Homo sapiens) (UniProt P11387).
T1 sequence (whole entry): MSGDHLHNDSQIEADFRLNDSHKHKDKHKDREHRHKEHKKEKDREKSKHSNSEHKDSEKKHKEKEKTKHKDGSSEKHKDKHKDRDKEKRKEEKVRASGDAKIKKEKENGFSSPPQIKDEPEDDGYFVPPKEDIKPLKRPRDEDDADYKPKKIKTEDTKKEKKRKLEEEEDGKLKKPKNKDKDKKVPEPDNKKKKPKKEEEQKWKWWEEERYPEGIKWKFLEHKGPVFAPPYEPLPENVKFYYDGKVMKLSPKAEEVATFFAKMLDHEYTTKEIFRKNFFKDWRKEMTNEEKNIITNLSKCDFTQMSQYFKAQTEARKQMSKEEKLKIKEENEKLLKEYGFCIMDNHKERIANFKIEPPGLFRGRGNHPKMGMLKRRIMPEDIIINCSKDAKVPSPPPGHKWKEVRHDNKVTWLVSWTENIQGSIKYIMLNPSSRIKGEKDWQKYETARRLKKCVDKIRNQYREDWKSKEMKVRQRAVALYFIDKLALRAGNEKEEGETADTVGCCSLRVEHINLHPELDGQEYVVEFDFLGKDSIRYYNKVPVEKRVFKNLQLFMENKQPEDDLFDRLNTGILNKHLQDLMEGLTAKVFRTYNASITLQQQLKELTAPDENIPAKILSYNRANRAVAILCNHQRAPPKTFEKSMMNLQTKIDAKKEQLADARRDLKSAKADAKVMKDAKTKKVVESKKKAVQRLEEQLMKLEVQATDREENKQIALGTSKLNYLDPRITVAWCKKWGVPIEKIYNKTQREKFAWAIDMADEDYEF
Description: Inhibition of human recombinant DNA topoisomerase 1 assessed as reduction in enzyme-mediated relaxation of supercoiled pBR322 plasmid DNA at 100 uM in presence of 0.1% BSA by ethidium bromide staining based gel electrophoresis and UV spectroscopy relative to camptothecin.

The species named for test [2] is Homo sapiens. Description: Inhibition of human recombinant DNA topoisomerase 2 assessed as reduction in enzyme-mediated relaxation of supercoiled pBR322 plasmid DNA at 20 uM in presence of 0.1% BSA by ethidium bromide staining based gel electrophoresis and UV spectroscopy relative to etoposide.
For test [3], the system named is HeLa. As to the kind of experiment: Antiproliferative activity against human HeLa cells after 72 hrs by CCK8 assay. It is filed as functional, cell-based.
Test [4] is filed under the species Homo sapiens. Description: Inhibition of human recombinant DNA topoisomerase 2 assessed as reduction in enzyme-mediated relaxation of supercoiled pBR322 plasmid DNA at 100 uM in presence of 0.1% BSA by ethidium bromide staining based gel electrophoresis and UV spectroscopy relative to etoposide.
In test [5] the test system is HCT-15. Description: Antiproliferative activity against human HCT15 cells after 72 hrs by CCK8 assay. It is filed as functional, cell-based. As to conditions: HCT-15, 72 h.
The test system of test [6] is T47D. As to the kind of experiment: Antiproliferative activity against human T47D cells after 72 hrs by CCK8 assay. It is filed as functional, cell-based.
Test [7] deals with T1, DNA topoisomerase 1 (Homo sapiens). Description: Inhibition of human recombinant DNA topoisomerase 1 assessed as reduction in enzyme-mediated relaxation of supercoiled pBR322 plasmid DNA at 100 uM in presence of 0.1% BSA by ethidium bromide staining based gel electrophoresis and UV spectroscopy.
Test [8] is filed under the species Homo sapiens. Description: Inhibition of human recombinant DNA topoisomerase 2 assessed as reduction in enzyme-mediated relaxation of supercoiled pBR322 plasmid DNA at 20 uM in presence of 0.1% BSA by ethidium bromide staining based gel electrophoresis and UV spectroscopy.
For test [9], the species on record is Homo sapiens. As to the kind of experiment: Inhibition of human recombinant DNA topoisomerase 2 assessed as reduction in enzyme-mediated relaxation of supercoiled pBR322 plasmid DNA at 100 uM in presence of 0.1% BSA by ethidium bromide staining based gel electrophoresis and UV spectroscopy.

Broadly, the IC50 is the concentration needed to halve the response being measured. Higher therefore signals weaker potency in that assay. The term inhibition denotes the change of the read-out against control, counted positive when it falls. As for `Clc1ccccc1-c1cc(-c2ccco2)c2oc3ccccc3c2n1`, the fold change (FC) in test [1] is 0.99; in test [2], 0.14; in test [4], 0.9. Also, the IC50 in test [3] was above 50 µM; in [5] it was 21.7 µM; in test [6], above 50 µM. Moreover, the inhibition stood at 86.1% in test [7], 5.1% in test [8] and 59.4% in test [9].
In the case of `Clc1cccc(-c2cc(-c3ccc(Cl)o3)c3oc4ccccc4c3n2)c1`, the fold change (FC) in [1] came to 1.15; in test [2], 1.13; in test [4], 1.86. Further, the IC50 in test [3] amounted to 18.2 µM; in [5] it was 5.47 µM; in test [6], 7.47 µM. In addition, the inhibition was determined as 100% in test [7], 35.5% in test [8] and 97.3% in [9].
